Laboratory results published in ChEMBL document CHEMBL1201862, “PubChem BioAssay data set” (2004).
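Dose response: 5 concentrations. Exposure: 48 h. Format: 96-well plates. Endpoint: linear interpolation; highest concentration if not reached. Abbreviation: GI50, concentration required for 50% inhibition of growth.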 Activity calls are given as the source filed them. No stated cut-off is given here; in the data, active = GI50 up to about 1.1 µM and inactive = higher.

Columns and labels:
Test in all cases: NCI tumour cell line growth inhibition, 48 h
[1] = tested on: NCI-H522
[2] = tested on: ACHN
[3] = tested on: OVCAR-8
[4] = tested on: SNB-19
[5] = tested on: SW-620
[6] = tested on: NCI-H460
[7] = tested on: TK-10
[8] = tested on: CAKI-1
[9] = tested on: SF-295
[10] = tested on: NCI-H23
[11] = tested on: Malme-3M
[12] = tested on: OVCAR-5
[13] = tested on: A549
[14] = tested on: SK-OV-3
[15] = tested on: MOLT-4
[16] = tested on: HCC 2998
[17] = tested on: SF-268
[18] = tested on: M14
[19] = tested on: DLD-1
[20] = tested on: KM12
[21] = tested on: OVCAR-3
[22] = tested on: HL-60
[23] = tested on: NCI-H226
[24] = tested on: DMS-273
[25] = tested on: IGROV-1
[26] = tested on: SK-MEL-2
[27] = tested on: COLO 205
[28] = tested on: LOX IMVI
[29] = tested on: UO-31
[30] = tested on: HOP-92
[31] = tested on: SR
[32] = tested on: HOP-62
[33] = tested on: A498
[34] = tested on: LXFL 529
[35] = tested on: SN12C
[36] = tested on: DMS-114
[37] = tested on: HCT-15
[38] = tested on: SK-MEL-28
[39] = tested on: XF498
[40] = tested on: SF-539
[41] = tested on: SNB-75
[42] = tested on: HCT-116
[43] = tested on: 786-0
[44] = tested on: UACC-257
[45] = tested on: SK-MEL-5
[46] = tested on: CCRF-CEM
[47] = tested on: OVCAR-4
[48] = tested on: HT-29
[49] = tested on: U-251
[50] = tested on: M19-MEL
[51] = tested on: RPMI-8226
[52] = tested on: KM-20L2
[53] = tested on: SNB-78
[54] = tested on: UACC-62
[55] = tested on: K562
[56] = tested on: HOP-18
[57] = tested on: RXF 393
[58] = tested on: EKVX
[59] = tested on: MDA-MB-231
[60] = tested on: Hs-578T
[61] = tested on: PC-3
[62] = tested on: NCI/ADR-RES
[63] = tested on: MDA-MB-435
[64] = tested on: MDA-N
[65] = tested on: DU-145
[66] = tested on: T47D
[67] = tested on: MCF7
[68] = tested on: BT-549

SMILES: Cc1c(C(=O)CSc2nc3cc([N+](=O)[O-])ccc3[nH]2)c(=O)n(-c2ccccc2)n1C
- GI50 [1]: > 100 µM (inactive)
- GI50 [2]: > 100 µM (inactive)
- GI50 [3]: > 100 µM (inactive)
- GI50 [4]: > 100 µM (inactive)
- GI50 [5]: > 100 µM (inactive)
- GI50 [6]: > 100 µM (inactive)
- GI50 [7]: > 100 µM (inactive)
- GI50 [8]: > 100 µM (inactive)
- GI50 [9]: > 100 µM (inactive)
- GI50 [10]: > 100 µM (inactive)
- GI50 [11]: 49.7 µM (inactive)
- GI50 [12]: > 100 µM (inactive)
- GI50 [13]: > 100 µM (inactive)
- GI50 [14]: > 100 µM (inactive)
- GI50 [15]: > 100 µM (inactive)
- GI50 [16]: 36.6 µM (inactive)
- GI50 [17]: > 100 µM (inactive)
- GI50 [18]: > 100 µM (inactive)
- GI50 [19]: > 100 µM (inactive)
- GI50 [20]: > 100 µM (inactive)
- GI50 [21]: 71.8 µM (inactive)
- GI50 [22]: > 100 µM (inactive)
- GI50 [23]: > 100 µM (inactive)
- GI50 [24]: > 100 µM (inactive)
- GI50 [25]: > 100 µM (inactive)
- GI50 [26]: > 100 µM (inactive)
- GI50 [27]: > 100 µM (inactive)
- GI50 [28]: > 100 µM (inactive)
- GI50 [29]: > 100 µM (inactive)
- GI50 [30]: > 100 µM (inactive)
- GI50 [31]: > 100 µM (inactive)
- GI50 [32]: > 100 µM (inactive)
- GI50 [33]: > 100 µM (inactive)
- GI50 [34]: > 100 µM (inactive)
- GI50 [35]: > 100 µM (inactive)
- GI50 [36]: > 100 µM (inactive)
- GI50 [37]: > 100 µM
- GI50 [38]: > 100 µM (inactive)
- GI50 [39]: > 100 µM (inactive)
- GI50 [40]: > 100 µM (inactive)
- GI50 [41]: > 100 µM (inactive)
- GI50 [42]: > 100 µM (inactive)
- GI50 [43]: > 100 µM (inactive)
- GI50 [44]: > 100 µM (inactive)
- GI50 [45]: > 100 µM (inactive)
- GI50 [46]: > 100 µM (inactive)
- GI50 [47]: > 100 µM (inactive)
- GI50 [48]: > 100 µM (inactive)
- GI50 [49]: > 100 µM (inactive)
- GI50 [50]: > 100 µM (inactive)
- GI50 [51]: > 100 µM (inactive)

SMILES: CN(C)CC/C(=N\Nc1c(F)c(F)c(F)c(F)c1F)c1ccccc1
- GI50 [1]: 14.3 µM (inactive)
- GI50 [2]: 30.9 µM (inactive)
- GI50 [3]: 93.3 µM (inactive)
- GI50 [4]: 54.1 µM (inactive)
- GI50 [5]: 74.8 µM (inactive)
- GI50 [6]: 28 µM (inactive)
- GI50 [7]: 62.7 µM (inactive)
- GI50 [9]: 38.5 µM (inactive)
- GI50 [10]: 77.1 µM (inactive)
- GI50 [11]: 36.9 µM (inactive)
- GI50 [52]: 35.6 µM (inactive)
- GI50 [53]: 41.1 µM (inactive)
- GI50 [12]: 49.9 µM (inactive)
- GI50 [13]: 31.6 µM (inactive)
- GI50 [14]: 3.32 µM (inactive)
- GI50 [15]: 19.2 µM (inactive)
- GI50 [54]: 34.5 µM (inactive)
- GI50 [17]: 90.4 µM (inactive)
- GI50 [18]: > 10 µM (inactive)
- GI50 [19]: 8.63 µM (inactive)
- GI50 [20]: 48.5 µM (inactive)
- GI50 [21]: > 10 µM (inactive)
- GI50 [22]: 9.68 µM (inactive)
- GI50 [24]: 29.2 µM (inactive)
- GI50 [25]: 22.2 µM (inactive)
- GI50 [55]: 20.4 µM (inactive)
- GI50 [26]: 32.7 µM (inactive)
- GI50 [56]: 23.6 µM (inactive)
- GI50 [27]: > 100 µM (inactive)
- GI50 [28]: 32.7 µM (inactive)
- GI50 [29]: 7.38 µM (inactive)
- GI50 [57]: 22 µM (inactive)
- GI50 [31]: 17.6 µM (inactive)
- GI50 [32]: > 10 µM (inactive)
- GI50 [33]: 74.5 µM (inactive)
- GI50 [34]: 42.3 µM (inactive)
- GI50 [35]: 37.8 µM (inactive)
- GI50 [36]: 25.5 µM (inactive)
- GI50 [37]: 35.3 µM
- GI50 [38]: > 100 µM (inactive)
- GI50 [58]: > 100 µM (inactive)
- GI50 [40]: 40.2 µM (inactive)
- GI50 [41]: 3.35 µM (inactive)
- GI50 [42]: 86.9 µM (inactive)
- GI50 [43]: 82.4 µM (inactive)
- GI50 [44]: 24.1 µM (inactive)
- GI50 [45]: 14.2 µM (inactive)
- GI50 [46]: 21.2 µM (inactive)
- GI50 [47]: 16.9 µM (inactive)
- GI50 [48]: 35.8 µM (inactive)
- GI50 [49]: 42.4 µM (inactive)
- GI50 [50]: 70.1 µM (inactive)
- GI50 [51]: 19 µM (inactive)

SMILES: O=C1OC2C(O)COC2(O)C1(O)C(C[N+](=O)[O-])c1ccc(Cl)cc1 (stereo unspecified)
- GI50 [1]: 9.27 µM (inactive)
- GI50 [2]: 12.4 µM (inactive)
- GI50 [3]: 10.1 µM (inactive)
- GI50 [4]: 15.2 µM (inactive)
- GI50 [5]: 2.71 µM (inactive)
- GI50 [6]: 13.7 µM (inactive)
- GI50 [7]: 12.5 µM (inactive)
- GI50 [8]: 15.5 µM (inactive)
- GI50 [9]: 12.1 µM (inactive)
- GI50 [10]: 6.95 µM (inactive)
- GI50 [11]: 16.3 µM (inactive)
- GI50 [52]: 2.51 µM (inactive)
- GI50 [53]: 13.8 µM (inactive)
- GI50 [59]: 30.2 µM (inactive)
- GI50 [12]: 16.4 µM (inactive)
- GI50 [13]: 16.5 µM (inactive)
- GI50 [14]: 17.1 µM (inactive)
- GI50 [15]: 2.6 µM (inactive)
- GI50 [16]: 6.78 µM (inactive)
- GI50 [54]: 10 µM (inactive)
- GI50 [17]: 9.79 µM (inactive)
- GI50 [18]: 2.58 µM (inactive)
- GI50 [19]: 1.81 µM (inactive)
- GI50 [20]: 7.36 µM (inactive)
- GI50 [21]: 7.19 µM (inactive)
- GI50 [22]: 1.76 µM (inactive)
- GI50 [23]: 11.6 µM (inactive)
- GI50 [24]: 3.3 µM (inactive)
- GI50 [25]: 9.38 µM (inactive)
- GI50 [55]: 2.96 µM (inactive)
- GI50 [26]: 15.7 µM (inactive)
- GI50 [56]: 9.02 µM (inactive)
- GI50 [27]: 3.84 µM (inactive)
- GI50 [28]: 2.69 µM (inactive)
- GI50 [29]: 8.79 µM (inactive)
- GI50 [57]: 3.29 µM (inactive)
- GI50 [30]: 28.7 µM (inactive)
- GI50 [31]: 4.26 µM (inactive)
- GI50 [32]: 20.6 µM (inactive)
- GI50 [60]: 13.4 µM (inactive)
- GI50 [33]: 4.8 µM (inactive)
- GI50 [61]: 17 µM (inactive)
- GI50 [62]: 21.9 µM (inactive)
- GI50 [34]: 1.95 µM (inactive)
- GI50 [35]: 13.7 µM (inactive)
- GI50 [63]: 1.97 µM (inactive)
- GI50 [36]: 2.76 µM (inactive)
- GI50 [37]: 6.84 µM
- GI50 [38]: 3.52 µM (inactive)
- GI50 [58]: 23.6 µM (inactive)
- GI50 [40]: 3.97 µM (inactive)
- GI50 [41]: 9.35 µM (inactive)
- GI50 [42]: 1.79 µM (inactive)
- GI50 [64]: 2.76 µM (inactive)
- GI50 [43]: 1.82 µM (inactive)
- GI50 [65]: 18.2 µM (inactive)
- GI50 [44]: 6.68 µM (inactive)
- GI50 [66]: 13.8 µM (inactive)
- GI50 [45]: 8.17 µM (inactive)
- GI50 [46]: 3.45 µM (inactive)
- GI50 [47]: 8.45 µM (inactive)
- GI50 [67]: 1.98 µM (inactive)
- GI50 [48]: 1.99 µM (inactive)
- GI50 [49]: 9.29 µM (inactive)
- GI50 [50]: 2.5 µM (inactive)
- GI50 [51]: 0.959 µM (active)
- GI50 [68]: 6.75 µM (inactive)
